Here are results for one compound from patent US20040047823A1, “Use of ergothioneine and/or its derivatives as an anti-pollution agent” (priority 2003, published 2004).

The structures appear in SMILES notation.

In this test the test system is human keratinocytes. As to the kind of experiment: Protective effect against ozone-induced peroxides in human keratinocytes (2,7-dichlorofluorescine diacetate / DCF fluorescence). The class given is cell-based. The conditions noted are these: for % fluorescence observed ±SEM, expressed as % relative to the unprotected controls: ergothioneine 1 mM (24 h pretreatment at 0.5 mM), n=4; for drop in induced stress: ergothioneine 1 mM. As for the experimental part: In a first stage, human keratinocytes obtained from plastic surgeries, inoculated beforehand on D-3 into a 48-well dish at a rate of 25 000 cells/cm^2, are pretreated with ergothioneine dissolved in the culture medium for 24 hours, at a final concentration of 0.5 mM. A marker, 0,2,7-dichlorofluorescine diacetate, is then incorporated: after removing the ergothioneine solution and rinsing with PBS, the human keratinocytes are placed in contact for 30 minutes with a solution of 2,7-dichlorofluorescine diacetate (320 μM in phosphate-buffered saline PBS) at a rate of 500 μl per well, and are then rinsed again with PBS. The cells are then exposed to ozone: after placing the cells in contact with a fresh solution of ergothioneine in PBS at a concentration of 1 mM, at a rate of 100 μl per well, the cells are exposed to ozone in an incubator (37° C., humid atmosphere) with an ozone concentration of 10 ppm. The effects induced by the ozone are then measured by measuring the appearance of 2,7-dichloroflorescine (DCF: excitation at 485 nm and emission at 530 nm) after different exposure times: 0, 5, 10 and 20 minutes. Four independent experiments were performed and each measurement was repeated six times. The appearance of ozone-generated peroxides in the cell is reflected by an increase in the fluorescence. For each time, the fluorescence values of the unprotected controls are set at 100%. The results, in the presence of ergothioneine, are then expressed relative to this control value. A reduction in this value indicates a protective effect of the extract.

On to `C[N+](C)(C)[C@@H](Cc1c[nH]c(=S)[nH]1)C(=O)[O-]` [ergothioneine], for which the “% fluorescence observed ±SEM, expressed as % relative to the unprotected controls” value runs as follows: (5 min. of contact with ozone 10 ppm) 18.9 ± 2.4%; (10 min. of contact with ozone 10 ppm) 25.9 ± 3.8%; (20 min. of contact with ozone 10 ppm) 51.4 ± 10.2%. The “drop in induced stress” value runs as follows: (5 minutes of exposure to ozone 10 ppm) 81.1%; (10 minutes of exposure to ozone 10 ppm) 74.1%; (20 minutes of exposure to ozone 10 ppm) 48.6%.
